Values quoted from earlier work as cited in US7276520B2, “Bicyclic piperidine derivatives as melanocortin-4 receptor agonists” (Merck & Co., Inc., priority 2003, dated 2007).

How the values were obtained:
erectile dysfunction = conditions: for duration of effect / onset of action: after an oral dose; for share of men/patients in whom the drug is effective (adequate response): oral
[1] = test system: males with psychogenic erectile dysfunction
[2] = in vivo, po

Row | Compound | duration of effect (erectile dysfunction) | onset of action (erectile dysfunction) | share of men/patients in whom the drug is effective (adequate response) (erectile dysfunction) | response rate ([1]; injected intramuscularly or subcutaneously, psychogenic erectile dysfunction) | duration of action ([1]; subcutaneous injection) | time to onset of erection ([1]; subcutaneous injection) | absorption into the systemic circulation [2]
1 | Cc1ccc(N(CC2=NCCN2)c2cccc(O)c2)cc1 [phentolamine] | 2 h | 5 to 30 min | 35-40% |  |  |  | 
2 | CCCc1nn(C)c2c(=O)[nH]c(-c3cc(S(=O)(=O)N4CCN(C)CC4)ccc3OCC)nc12 [sildenafil] | about 4 hours | 30 to 60 min | about 70% |  |  |  | 
3 | Ac-Nle-c[Asp-His-DPhe-Arg-Trp-Lys]-NH2 [MT-II] |  |  |  | 75% | approximately 2.5 hours | 10 to 20 min | not absorbed into the systemic circulation
